Measured values reported in patent US20110092476A1, “Bicycloheteroaryl compounds as P2X7 modulators and uses thereof” (Renovis, Inc., priority 2006, published 2011).

Molecular target: T1, P2X7 receptor (Homo sapiens, UniProt Q99572)
T1 construct: host or cells: THP-1 cells differentiated with LPS and IFN-γ
T1 sequence (Q99572 1-595): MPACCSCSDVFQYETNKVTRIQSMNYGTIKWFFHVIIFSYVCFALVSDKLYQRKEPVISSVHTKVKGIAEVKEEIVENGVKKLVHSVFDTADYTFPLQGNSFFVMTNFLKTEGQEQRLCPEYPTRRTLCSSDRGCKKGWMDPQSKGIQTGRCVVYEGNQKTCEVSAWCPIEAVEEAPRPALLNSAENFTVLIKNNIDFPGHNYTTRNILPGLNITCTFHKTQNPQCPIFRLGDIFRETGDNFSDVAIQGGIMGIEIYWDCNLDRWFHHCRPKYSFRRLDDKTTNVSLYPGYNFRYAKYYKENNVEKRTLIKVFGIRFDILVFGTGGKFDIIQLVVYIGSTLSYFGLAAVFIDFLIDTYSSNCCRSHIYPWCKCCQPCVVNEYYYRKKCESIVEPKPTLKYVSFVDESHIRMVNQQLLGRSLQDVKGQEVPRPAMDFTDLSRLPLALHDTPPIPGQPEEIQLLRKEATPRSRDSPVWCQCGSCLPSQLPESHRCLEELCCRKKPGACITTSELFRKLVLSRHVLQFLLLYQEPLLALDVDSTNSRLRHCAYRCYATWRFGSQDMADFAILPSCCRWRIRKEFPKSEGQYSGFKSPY
Assay: IL-1β release assay in differentiated THP-1 cells stimulated with BzATP (Example 9)
Format: cell-based
Conditions: 0.1 μM compound (symbols *); differentiated THP-1 cells, BzATP 250 uM; read-out: IL-1β % Inhib. @ 0.3 or 0.1 uM
Procedure: THP-1 cells (ATCC Cat #285-IF-100) are plated in 96 well plates at a concentration of 200,000 cells per well and allowed to differentiate in RPMI-1640 media (ATCC Cat #30-2001) containing 10% FBS, 100 IU/mL penicillin, 100 ug/mL streptomycin, 100 ng/mL LPS and 100 ng/mL IFN-γ for 16 hours. Following differentiation, the cells are treated for an additional 2 hours in RPMI-1640 media containing 100 IU/mL penicillin, 100 ug/mL streptomycin and fresh LPS at 100 ng/mL. The cells are then pretreated for 30 minutes with the compound of interest at the appropriate concentration in RPMI media containing 100 IU/mL penicillin, 100 ug/mL streptomycin. Following the pretreatment 2′,3′-O-(4-benzoylbenzoyl)-adenosine 5′-triphosphate (Sigma Aldrich Cat #B6396) is added to a final concentration of 250 uM and the cells are incubated for an additional 45 minutes. 30 uL of cell supernatant is then collected and IL-1β levels determined via ELISA (R&D systems Cat. #HSLB50) according to manufacturer's recommendations using the Tecan Safire plate reader. Background adjusted IL-1β levels of drug treated and non-treated cells are used to calculate the percent inhibition.
The compounds set forth in Table 1 were tested for activity in a cellular model as described herein. Specifically, cells were pretreated with differing amounts of the compound under test and released IL-1β determined as in Example 9, above. Measurements were made and IC50 values, presented in Table 2, below, were determined by fitting the data to a four parameter logistic equation using GraphPad Prism software (GraphPad Software, Inc). The equation may be expressed by the following formula:
Y=Bottom+(Top−Bottom)/(1+10̂((Log EC50−X)*HillSlope))
Where X is the logarithm of concentration, Y is the response and Y starts at Bottom and goes to Top with a sigmoid shape.

SMILES | inhibition at 0.1 µM [%]
COc1ccc(C(=O)Nc2cccc3c(=O)n(CC4(O)CCCCC4)ccc23)c(C)c1 [Compound 83] | 0 to 25
Cc1cccc(C(=O)Nc2cccc3c(=O)n(CC4(O)CCCCC4)ccc23)c1C [Compound 85] | 0 to 25
Cc1ccc(C(=O)Nc2cccc3c(=O)n(CC4(O)CCCCC4)ccc23)c(C)c1 [Compound 86] | 0 to 25
COc1ccccc1CCC(=O)Nc1cccc2c(=O)n(CC3(O)CCCCC3)ccc12 [Compound 87] | 0 to 25
Cc1ccccc1CC(=O)Nc1cccc2c(=O)n(CC3(O)CCCCC3)ccc12 [Compound 89] | 0 to 25
Cc1ccccc1CCC(=O)Nc1cccc2c(=O)n(C(C)CO)ccc12 (centres unmarked) [Compound 90] | 26 to 50
COc1ccc(C(=O)Nc2cccc3c(=O)n(C(C)CO)ccc23)cc1Cl (centres unmarked) [Compound 92] | 0 to 25
CCOc1cccc(C(=O)Nc2cccc3c(=O)n(C(C)CO)ccc23)c1 (centres unmarked) [Compound 93] | 0 to 25
CC(CO)n1ccc2c(NC(=O)c3ccc(Cl)cc3Cl)cccc2c1=O (centres unmarked) [Compound 96] | 0 to 25
CC(CO)n1ccc2c(NC(=O)c3cc(Cl)ccc3Cl)cccc2c1=O (centres unmarked) [Compound 97] | 0 to 25
Cc1cccc(C(=O)Nc2cccc3c(=O)n(C(C)CO)ccc23)c1C (centres unmarked) [Compound 98] | 0 to 25
Cc1ccc(C(=O)Nc2cccc3c(=O)n(C(C)CO)ccc23)c(C)c1 (centres unmarked) [Compound 99] | 0 to 25
Cc1ccc(C)c(C(=O)Nc2cccc3c(=O)n(C(C)CO)ccc23)c1 (centres unmarked) [Compound 100] | 0 to 25
CCOc1ccc(C(=O)Nc2cccc3c(=O)n(C(C)CO)ccc23)cc1 (centres unmarked) [Compound 101] | 0 to 25
CC(CO)n1ccc2c(NC(=O)c3ccc(-c4ccccc4)cc3)cccc2c1=O (centres unmarked) [Compound 102] | 0 to 25
CC(C(=O)Nc1cccc2c(=O)n(C(C)CO)ccc12)c1ccccc1 (centres unmarked) [Compound 103] | 0 to 25
COc1ccccc1CCC(=O)Nc1cccc2c(=O)n(C(C)CO)ccc12 (centres unmarked) [Compound 104] | 0 to 25
COc1ccccc1CC(=O)Nc1cccc2c(=O)n(C(C)CO)ccc12 (centres unmarked) [Compound 107] | 0 to 25
COc1ccc(CC(=O)Nc2cccc3c(=O)n(C(C)CO)ccc23)cc1 (centres unmarked) [Compound 110] | 0 to 25
CC(CO)n1ccc2c(NC(=O)CCCc3ccccc3)cccc2c1=O (centres unmarked) [Compound 111] | 0 to 25

SMILES | inhibition at 0.1 µM [%]
CC(CO)n1ccc2c(NC(=O)c3cc4ccccc4o3)cccc2c1=O (centres unmarked) [Compound 112] | 0 to 25
CC(CO)n1ccc2c(NC(=O)Cc3ccc4c(c3)OCO4)cccc2c1=O (centres unmarked) [Compound 113] | 0 to 25
CC(CO)n1ccc2c(NC(=O)c3cccc4c3OCCO4)cccc2c1=O (centres unmarked) [Compound 116] | 0 to 25
Cc1cc(C)cc(CC(=O)Nc2cccc3c(=O)n(C(C)CO)ccc23)c1 (centres unmarked) [Compound 119] | 0 to 25
COc1ccc(CC(=O)Nc2cccc3c(=O)n(C(C)CO)ccc23)c(OC)c1 (centres unmarked) [Compound 120] | 0 to 25
Cc1ccc(Cl)c(C(=O)Nc2cccc3c(=O)n(C(C)CO)ccc23)c1 (centres unmarked) [Compound 121] | 0 to 25
Cc1ccc(Cl)cc1C(=O)Nc1cccc2c(=O)n(C(C)CO)ccc12 (centres unmarked) [Compound 122] | 0 to 25
COc1ccc(C(=O)Nc2cccc3c(=O)n(C(C)CO)ccc23)cc1C (centres unmarked) [Compound 123] | 0 to 25
COc1ccc(C(=O)Nc2cccc3c(=O)n(CC(C)O)ccc23)c(C)c1 (centres unmarked) [Compound 125] | 0 to 25
COc1ccc(C(=O)Nc2cccc3c(=O)n(CC(C)O)ccc23)cc1Cl (centres unmarked) [Compound 131] | 0 to 25
CC(O)Cn1ccc2c(NC(=O)CCc3ccc4c(c3)OCO4)cccc2c1=O (centres unmarked) [Compound 134] | 0 to 25
Cc1cc(C(=O)Nc2cccc3c(=O)n(CC(C)O)ccc23)ccc1Cl (centres unmarked) [Compound 135] | 0 to 25
CC(O)Cn1ccc2c(NC(=O)c3ccc(Cl)cc3Cl)cccc2c1=O (centres unmarked) [Compound 137] | 0 to 25
CC(O)Cn1ccc2c(NC(=O)c3cc(Cl)ccc3Cl)cccc2c1=O (centres unmarked) [Compound 138] | 0 to 25
Cc1ccccc1C(=O)Nc1cccc2c(=O)n(CC(C)O)ccc12 (centres unmarked) [Compound 139] | 26 to 50
Cc1cccc(C(=O)Nc2cccc3c(=O)n(CC(C)O)ccc23)c1C (centres unmarked) [Compound 140] | 0 to 25
Cc1cccc(C(=O)Nc2cccc3c(=O)n(CC(C)O)ccc23)c1 (centres unmarked) [Compound 144] | 0 to 25
CC(O)Cn1ccc2c(NC(=O)c3ccc(-c4ccccc4)cc3)cccc2c1=O (centres unmarked) [Compound 146] | 0 to 25
CC(O)Cn1ccc2c(NC(=O)c3ccc(C(C)(C)C)cc3)cccc2c1=O (centres unmarked) [Compound 147] | 0 to 25

Results, then the compound that gave them:

inhibition at 0.1 µM [%] | SMILES
0 to 25 | Cc1ccccc1CCC(=O)Nc1cccc2c(=O)n(CC3(O)CCCCC3)ccc12 [Compound 84]
0 to 25 | O=C(Cc1ccccc1Cl)Nc1cccc2c(=O)n(CC3(O)CCCCC3)ccc12 [Compound 88]
0 to 25 | COc1cccc(CCC(=O)Nc2cccc3c(=O)n(C(C)CO)ccc23)c1 (centres unmarked) [Compound 91]
0 to 25 | CC(CO)n1ccc2c(NC(=O)CCc3ccc4c(c3)OCO4)cccc2c1=O (centres unmarked) [Compound 94]
0 to 25 | CC(CO)n1ccc2c(NC(=O)c3ccccc3Cl)cccc2c1=O (centres unmarked) [Compound 95]
0 to 25 | COc1ccc(CCC(=O)Nc2cccc3c(=O)n(C(C)CO)ccc23)cc1 (centres unmarked) [Compound 105]
0 to 25 | CC(CO)n1ccc2c(NC(=O)c3cccc4ccccc34)cccc2c1=O (centres unmarked) [Compound 106]
0 to 25 | COc1ccc(OC)c(CC(=O)Nc2cccc3c(=O)n(C(C)CO)ccc23)c1 (centres unmarked) [Compound 108]
0 to 25 | COc1ccc(CC(=O)Nc2cccc3c(=O)n(C(C)CO)ccc23)cc1OC (centres unmarked) [Compound 109]
0 to 25 | COc1cc(CC(=O)Nc2cccc3c(=O)n(C(C)CO)ccc23)cc(OC)c1 (centres unmarked) [Compound 114]
0 to 25 | Cc1ccc(C(=O)Nc2cccc3c(=O)n(C(C)CO)ccc23)cc1Cl (centres unmarked) [Compound 115]
0 to 25 | CC(CO)n1ccc2c(NC(=O)c3ccc4c(c3)OCCCO4)cccc2c1=O (centres unmarked) [Compound 117]
26 to 50 | Cc1c(Cl)cccc1C(=O)Nc1cccc2c(=O)n(C(C)CO)ccc12 (centres unmarked) [Compound 118]
0 to 25 | CCOc1ccc(C(=O)Nc2cccc3c(=O)n(CC(C)O)ccc23)c(O)c1 (centres unmarked) [Compound 124]
26 to 50 | Cc1ccccc1CCC(=O)Nc1cccc2c(=O)n(CC(C)O)ccc12 (centres unmarked) [Compound 126]
0 to 25 | CC(O)Cn1ccc2c(NC(=O)c3ccc(-c4ccccc4)o3)cccc2c1=O (centres unmarked) [Compound 127]
0 to 25 | COc1cccc(CCC(=O)Nc2cccc3c(=O)n(CC(C)O)ccc23)c1 (centres unmarked) [Compound 128]
0 to 25 | Cc1cc(C)c(CC(=O)Nc2cccc3c(=O)n(CC(C)O)ccc23)c(C)c1 (centres unmarked) [Compound 129]
26 to 50 | Cc1ccc(C)c(CC(=O)Nc2cccc3c(=O)n(CC(C)O)ccc23)c1 (centres unmarked) [Compound 130]
0 to 25 | CCOc1cccc(C(=O)Nc2cccc3c(=O)n(CC(C)O)ccc23)c1 (centres unmarked) [Compound 132]
26 to 50 | CC(O)Cn1ccc2c(NC(=O)CCc3ccccc3Cl)cccc2c1=O (centres unmarked) [Compound 133]
0 to 25 | CC(O)Cn1ccc2c(NC(=O)c3ccccc3Cl)cccc2c1=O (centres unmarked) [Compound 136]
0 to 25 | Cc1ccc(C(=O)Nc2cccc3c(=O)n(CC(C)O)ccc23)c(C)c1 (centres unmarked) [Compound 141]
0 to 25 | Cc1ccc(C)c(C(=O)Nc2cccc3c(=O)n(CC(C)O)ccc23)c1 (centres unmarked) [Compound 142]
0 to 25 | COc1cc(OC)cc(C(=O)Nc2cccc3c(=O)n(CC(C)O)ccc23)c1 (centres unmarked) [Compound 143]
0 to 25 | CCOc1ccc(C(=O)Nc2cccc3c(=O)n(CC(C)O)ccc23)cc1 (centres unmarked) [Compound 145]
